Patent US20070270421A1, “Novel pyridine Derivative and Pyrimidine Derivative (1)” (priority 2004, published 2007)

Key:
[1] = tested on: Human gastric cancer cells (MKN-45); assay: Inhibitory activity against the proliferation of human gastric cancer cells (MKN-45); assay type: cell-based; details: 72 h, MKN-45, 1% FBS RPMI1640, 3 days, Cell Counting Kit-8, read-out: IC50 (concentration necessary to inhibit the cell proliferation by 50%)
Description: Human gastric cancer cells (MKN-45) were suspended in a 1% FBS-containing RPMI1640 medium (purchased from Sigma). The cell suspension (1×10^4 cells/ml) was added in a 96-well plate for cell culture (purchased from NUNC, Production No. 167008) at 0.1 ml/well, and then cultured in a 5% CO2 incubator (37° C.) overnight. After the culture, each well was supplied with 0.1 ml of a test substance diluted with a 1% FBS-containing RPMI1640 medium, followed by culturing in a 5% CO2 incubator (37° C.) for 3 days. After the culture, each well was supplied with 10 μl of Cell Counting Kit-8 (purchased from DOJINDO, Production No. 343-07623), followed by incubation in a 5% CO2 incubator (37° C.) for about 1.5 hrs. After the incubation, using the Plate Reader MTP-500 (Corona Electric), the absorbance of each well was determined at a measurement wavelength of 450 nm and a reference wavelength of 660 nm. The ratio (%) of absorbance of each well supplied with a test substance to absorbance of the well supplied with no test substance was calculated, and the ratio was used to calculate the concentration (IC50) of the test substance necessary to inhibit the cell proliferation by 50%.

HGFR autophosphorylation = target: T1, HGFR autophosphorylation (Homo sapiens, UniProt P08581); assay: Inhibitory activity against the HGFR autophosphorylation using ELISA; assay type: cell-based; details: MKN-45 cells, 1 hr treatment, read-out: IC50 (concentration necessary to inhibit HGFR autophosphorylation activity by 50%)
T1 construct: endogenous in cells; host or cells: MKN-45 human gastric cancer cells
Description: Human gastric cancer cells (MKN-45) were suspended in a 1% FBS-containing RPMI1640 medium (purchased from Sigma). The cell suspension (1×10^5 cells/ml) was put in a 96-well plate for cell culture (purchased from NUNC, Production No. 167008) at 0.1 ml/well, and then cultured in a 5% CO2 incubator (37° C.) overnight. After the culture, from each well was removed the supernatant solution, followed by adding 0.05 ml of a 1% FBS-containing RPMI1640 medium. Then, the well was supplied with 0.05 ml of the test substance dissolved in dimethyl sulfoxide (diluted with a 1% FBS-containing RPMI1640 medium), followed by culturing in a 5% CO2 incubator (37° C.) for 1 hr. From each well was removed the supernatant, and each well was washed with 150 μl of PBS, followed by adding 100 μl of a lysis buffer (50 mM Hepes (pH 7.4), 150 mM NaCl, 10% (v/v) glycerol, 1% Triton X-100, 1.5 mM MgCl2, 1 mM EDTA (pH 8.0), 100 mM NaF, 1 mM PMSF, 10 μg/ml Aprotinin, 50 μg/ml Leupeptin, 1 μg/ml Pepstatin A and 1 mM Na3VO4). The plate was shaken at 4° C. for 1 hr to prepare the cell extract.
To a 96-well plate for ELISA (purchased from COSTAR, Production No. 3369) was added 50 μl of 60 mM bicarbonate buffer (pH 9.6) containing 50 μg/ml of an anti-phosphotyrosine antibody (PY20, purchased from Transduction Laboratory, Production No. P-11120). The plate was incubated at 4° C. overnight.
Each well of the plate prepared in 2. was washed three times with 200 μl of PBS, and supplied with 150 μl of 3% BSA/PBS, followed by incubating at room temperature for 2 hrs. Each well was washed three times with 200 μl of PBS, and supplied with 50 μl of the above cell extract, followed by incubating at 4° C. overnight. After the incubation, each well was washed three times with 250 μl of a washing solution (0.1% BSA, 20 mM Tris-HCl (pH 7.6), 137 mM NaCl, and 0.05% Tween-20), and supplied with 70 μl of anti-HGFR antibody (h-Met(C-12), purchased from Santa Cruz, Production No. sc-10) 2,000-fold diluted with a reaction solution (1% BSA, 20 mM Tris-HCl (pH 7.6), 137 mM NaCl and 0.05% Tween-20), followed by incubating at room temperature for 1 hr. The well was washed three times with 250 μl of the washing solution, and supplied with 70 μl of peroxidase-labelled anti-rabbit IgG antibody (purchased from Cell Signaling, Production No. 7074) 2,000-fold diluted with the reaction solution, followed by incubating at room temperature for 1 hr. Each well was washed three times with 250 μl of the washing solution, and supplied with 70 μl of TMB Membrane Peroxidase Substrate (purchased from Funakoshi, Production No. 50-5077-03), followed by incubating at room temperature for 10 min. Each well was supplied with 70 μl of 1 M phosphoric acid, and using the Plate Reader MTP-500 (Corona Electric), the absorbance of the well was instantly determined at a measurement wavelength of 450 nm. While defining the absorbance of a well supplied with the cell extract having no test substance as 100% HGFR autophosphorylation activity, and the absorbance of a well supplied with 50 μl of the lysis buffer as 0% HGFR autophosphorylation activity, the HGFR autophosphorylation activity (%) was calculated for each well. The concentration of the test substance was changed by several levels to calculate HGFR autophosphorylation activities (%) in respective cases, and to calculate the concentration (IC50) of the test substance necessary to inhibit HGFR autophosphorylation activity by 50%.

T1 sequence (P08581 25-1390): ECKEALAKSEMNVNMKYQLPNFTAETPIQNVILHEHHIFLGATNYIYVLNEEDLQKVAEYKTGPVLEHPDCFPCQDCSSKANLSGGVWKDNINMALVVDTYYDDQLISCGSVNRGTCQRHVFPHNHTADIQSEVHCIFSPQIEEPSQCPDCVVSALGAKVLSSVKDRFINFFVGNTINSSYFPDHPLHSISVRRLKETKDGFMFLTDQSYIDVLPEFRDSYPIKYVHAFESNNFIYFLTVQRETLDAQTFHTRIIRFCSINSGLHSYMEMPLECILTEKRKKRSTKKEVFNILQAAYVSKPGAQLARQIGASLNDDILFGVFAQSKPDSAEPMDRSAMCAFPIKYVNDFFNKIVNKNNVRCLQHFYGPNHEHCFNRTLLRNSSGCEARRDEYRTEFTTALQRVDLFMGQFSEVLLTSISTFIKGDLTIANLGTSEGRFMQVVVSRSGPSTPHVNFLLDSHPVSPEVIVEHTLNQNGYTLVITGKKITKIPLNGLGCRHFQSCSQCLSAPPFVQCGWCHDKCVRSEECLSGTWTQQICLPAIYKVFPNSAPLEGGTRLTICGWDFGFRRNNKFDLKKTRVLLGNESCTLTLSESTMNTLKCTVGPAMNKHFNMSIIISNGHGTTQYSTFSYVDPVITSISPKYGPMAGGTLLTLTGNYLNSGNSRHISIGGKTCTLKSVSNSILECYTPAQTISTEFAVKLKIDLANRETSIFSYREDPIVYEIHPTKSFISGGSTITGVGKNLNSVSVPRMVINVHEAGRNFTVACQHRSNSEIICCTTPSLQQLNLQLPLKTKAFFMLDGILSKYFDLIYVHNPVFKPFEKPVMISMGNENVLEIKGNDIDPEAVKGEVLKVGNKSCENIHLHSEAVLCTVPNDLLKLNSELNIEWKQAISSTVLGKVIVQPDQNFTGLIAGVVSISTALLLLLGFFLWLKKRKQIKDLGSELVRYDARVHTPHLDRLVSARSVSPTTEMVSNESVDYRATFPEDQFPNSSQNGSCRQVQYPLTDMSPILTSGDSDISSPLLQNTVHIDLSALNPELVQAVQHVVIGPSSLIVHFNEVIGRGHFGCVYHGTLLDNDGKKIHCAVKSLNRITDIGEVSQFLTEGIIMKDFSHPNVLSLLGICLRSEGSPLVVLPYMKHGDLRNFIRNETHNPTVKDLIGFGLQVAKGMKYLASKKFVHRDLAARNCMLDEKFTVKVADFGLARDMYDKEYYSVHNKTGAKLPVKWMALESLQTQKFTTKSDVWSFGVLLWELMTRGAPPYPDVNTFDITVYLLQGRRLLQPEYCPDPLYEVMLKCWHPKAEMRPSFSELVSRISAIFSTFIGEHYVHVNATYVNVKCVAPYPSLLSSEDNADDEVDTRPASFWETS

| SMILES | IC50 [1] [nM] | IC50 (HGFR autophosphorylation) [nM] |
| --- | --- | --- |
| O=C(Cc1ccc(F)cc1)NC(=S)Nc1ccc(Oc2cc(NC(=O)N3CCCC3)ncn2)c(F)c1 [Example 3, Pyrrolidine-1-carboxylic acid [6-(2-fluoro-4-{3-[2-(4-fluorophenyl)acetyl]thioureido}phenoxy)pyrimidin-4-yl]amide] | 40 | 20 |
| O=C(Cc1ccc(F)cc1)NC(=S)Nc1ccc(Oc2ccnc(NC(=O)N3CCCC3)c2)cc1 [Example 9, Pyrrolidine-1-carboxylic acid [4-(4-{3-[2-(4-fluorophenyl)acetyl]thioureido}phenoxy)pyridin-2-yl]amide] | 33 | 20 |
| O=C(Cc1ccccc1)NC(=S)Nc1ccc(Oc2ccnc(NC(=O)N3CCOCC3)c2)c(Cl)c1 [Example 11, 4-{2-Chloro-4-[3-(2-phenylacetyl)thioureido]phenoxy}-2-[(morpholin-4-yl)carbonylamino]pyridine] | 180 | 43 |
| O=C(Cc1ccc(F)cc1)NC(=S)Nc1ccc(Oc2ccnc(NC(=O)N3CCCC3)c2)c(F)c1 [Example 13, 4-(2-Fluoro-4-{3-[2-(4-fluorophenyl)acetyl]thioureido}phenoxy)-2-[(pyrrolidin-1-yl)carbonylamino]pyridine] | 23 | 6.8 |
| O=C(Cc1ccccc1)NC(=S)Nc1ccc(Oc2ccnc(NC(=O)N3CCC(O)CC3)c2)c(F)c1 [Example 15, 4-{2-Fluoro-4-[3-(2-phenylacetyl)thioureido]phenoxy}-2-[(4-hydroxypiperidin-1-yl)carbonylamino]pyridine] | 48 | 13 |
| CN(C)C(=O)Nc1cc(Oc2ccc(NC(=S)NC(=O)CC3CC4CCC3C4)cc2F)ccn1 (stereo not shown) [Example 17, 2-[(Dimethylamino)carbonylamino]-4-{2-fluoro-4-[3-(2-norbornaneacetylthio)ureido]phenoxy}pyridine] | 570 | 120 |
| CCN(CC)CCCN(C)C(=O)Nc1cc(Oc2ccc(NC(=S)NC(=O)Cc3ccc(F)cc3)cc2F)ccn1 [Example 22, 1-(3-Diethylaminopropyl)-3-[4-(2-fluoro-4-{3-[2-(4-fluorophenyl)acetyl]thioureido}phenoxy)pyridin-2-yl]-1-methylurea] | 33 | < 30 |
| Cc1cc(NC(=S)NC(=O)Cc2ccc(F)cc2)ccc1Oc1ccnc(NC(=O)N2CCOCC2)c1 [Example 24, Morpholine-4-carboxylic acid (4-{2-methyl-4-[3-(4-fluorophenyl)acetylthioureido]phenoxy}pyridin-2-yl)amide] | 180 | 69 |
| CN1CCC(N(C)C(=O)Nc2cc(Oc3ccc(NC(=S)NC(=O)Cc4ccccc4)cc3F)ccn2)CC1 [Example 28, 3-{4-[2-Fluoro-4-(3-phenylacetylthioureido)phenoxy]pyridin-2-yl}-1-methyl-1-(1-methylpiperidin-4-yl)urea] | 5.8 | 19 |
| O=C(Cc1ccccc1)NC(=O)Nc1ccc(Oc2ccnc(NC(=O)N3CCCC3)c2)c(F)c1 [Example 43, 4-{2-Fluoro-4-[3-(2-phenylacetyl)ureido]phenoxy}-2-[(pyrrolidin-1-yl)carbonylamino]pyridine] | 35 | 59 |
| CN(C)C(=O)Nc1cc(Oc2ccc(NC(=O)NC(=O)Cc3ccccc3)cc2F)ccn1 [Example 44, 2-[(Dimethylamino)carbonylamino]-4-{2-fluoro-4-[3-(2-phenylacetyl)ureido]phenoxy}pyridine] | 64 | 350 |
| O=C(Cc1ccccc1)NC(=O)Nc1ccc(Oc2ccnc(NC(=O)N3CCC(N4CCCC4)CC3)c2)c(F)c1 [Example 45, 4-{2-Fluoro-4-[3-(2-phenylacetyl)ureido]phenoxy}-2-{[4-(pyrrolidin-1-yl)piperidin-1-yl]carbonylamino}pyridine] | 140 | 350 |
| O=C(Cc1ccccc1)NC(=O)Nc1ccc(Oc2ccnc(NC(=O)N3CCOCC3)c2)c(F)c1 [Example 48, Morpholine-4-carboxylic acid {4-[2-fluoro-4-(3-phenylacetylureido)phenoxy]pyridin-2-yl}amide] | 57 | 260 |
| CN1CCN(C(=O)Nc2cc(Oc3ccc(NC(=O)NC(=O)Cc4ccccc4)cc3F)ccn2)CC1 [Example 50, 4-Methylpiperazine-1-carboxylic acid {4-[2-fluoro-4-(3-phenylacetylureido)phenoxy]pyridin-2-yl}amide] | 160 | 280 |
| CN1CCC(N(C)C(=O)Nc2cc(Oc3ccc(NC(=O)NC(=O)Cc4ccccc4)cc3F)ccn2)CC1 [Example 52, 3-{4-[2-Fluoro-4-(3-phenylacetylureido)phenoxy]pyridin-2-yl]-1-methyl-1-(1-methylpiperidin-4-yl)urea] | 63 | 340 |
| O=C(CC(=O)Nc1ccc(Oc2ccnc(NC(=O)N3CCCC3)c2)c(F)c1)Nc1ccc(F)cc1 [Example 56, N-(4-Fluorophenyl)-N′-(3-fluoro-4-{2-[(pyrrolidine-1-carbonyl)amino]pyridin-4-yloxy}phenyl)malonamide] | 140 | 130 |
| O=C(CC(=O)Nc1ccc(Oc2ccnc(NC(=O)C3CC3)c2)cc1F)Nc1ccc(F)cc1 [Example 77, N-(4-Fluorophenyl)-N′-{4-[2-(cyclopropanecarbonylamino)pyridin-4-yloxy]-2-fluorophenyl}malonamide] | 110 | 110 |
| O=C(CC(=O)Nc1ccc(Oc2ccnc(NC(=O)N3CCC(N4CCCC4)CC3)c2)cc1F)Nc1ccc(F)cc1 [Example 82, N-(4-Fluorophenyl)-N′-[2-fluoro-4-(2-{[4-(pyrrolidin-1-yl)piperidine-1-carbonyl]amino}pyridin-4-yloxy)phenyl]malonamide] | 120 | 88 |
| Cc1cc(Oc2ccnc(NC(=O)N3CCC(N4CCCC4)CC3)c2)ccc1NC(=O)CC(=O)Nc1ccc(F)cc1 [Example 85, N-(4-Fluorophenyl)-N′-[2-methyl-4-(2-{[(4-pyrrolidin-1-yl)piperidine-1-carbonyl]amino}pyridin-4-yloxy)phenyl]malonamide] | 630 | 590 |
| CN1CCC(N(C)C(=O)Nc2cc(Oc3ccc(NC(=O)CC(=O)Nc4ccc(F)cc4)cc3F)ccn2)CC1 [Example 89, N-(3-Fluoro-4-{2-[3-methyl-3-(1-methylpiperidin-4-yl)ureido]pyridin-4-yloxy}phenyl)-N′-(4-fluorophenyl)malonamide] | 86 | 49 |
